Data taken from patent US20160346226A1, “Therapeutic Applications Of Prenylated Stilbenoids Against Rotavirus Infections” (ARKANSAS STATE UNIVERSITY, priority 2015, published 2016).
Like-named read-outs stand apart in the source and are kept apart here.

Assays:
RV-infected MA104 cells = conditions: reference [29]; cited from earlier work
[1] = test system: human leukemia HL-60 cells; conditions: reference [2]; cited from earlier work
RV SA114F [2] = test: Plaque forming unit (PFU) assay of the same supernatants; type: cell-based, simian rotavirus SA114F; conditions: 20 μM, average of three experiments, HT29.f8 supernatants
mammalian cells = conditions: all cell lines, reference [3]; cited from earlier work
RV SA114F [3] = test: Focus forming unit (FFU) viral titer of supernatants of RV-infected HT29.f8 cells treated with stilbenoids; type: cell-based, simian rotavirus SA114F
[4] = test system: cannabinoid receptor 1 (CB1R); conditions: cited from earlier work; for mode of action at CB1R: reference [19]; for modulation of the cannabinoid receptors: references [18, 19]
[5] = test system: rotavirus (Wa) infected HT29.f8 cells; test: TEM observations of cell ultrastructure of rotavirus (Wa) infected HT29.f8 cells; type: cell-based, human; conditions: 20 μM, 18 hpi
Source text: Observations of Cell Ultrastructure with TEM of Rotavirus (RV) Infected HT29.f8 Cells w/without t-A3
Mitochondria (M), rotavirus particles (RV), and a nucleolus (N) can be seen. Final Magnification=8,300×.

SMILES	difference in PFU/ml versus RV only and RV with DMSO (RV SA114F [2])	change in virus titer (FFU) compared to RV-infected control (RV SA114F [3])	mode of action at CB1R [4]	modulation of the cannabinoid receptors [4]	also measured
CCCCCCCCCCCCCCOc1ccc(C(=O)O)o1 [TOFA, 5-(tetradecyloxy)-2-furoic acid]					virus infectivity and viral RNA production (RV-infected MA104 cells): dose-dependent reduction
CC(C)/C=C/c1c(O)cc(/C=C/c2ccc(O)c(O)c2)cc1O [t-A1, Trans-Arachidin-1]	one hundred fold difference	one hundred fold decrease in virus titer	antagonize CB1R agonists by both competitive and non-competitive mechanisms	modulate the cannabinoid receptors at micromolar levels	programmed cell death [1]: inducing programmed cell death; cytotoxicity (mammalian cells): highest but moderate cytotoxicity
CC(C)/C=C/c1c(O)cc(/C=C/c2ccc(O)cc2)cc1O [t-A3, trans-arachidin-3]	one hundred fold difference	one hundred fold decrease in virus titer	competitive cannabinoid receptor 1 (CB1R) antagonist	modulate the cannabinoid receptors at micromolar levels	RV particles observed that were noninfectious, immature enveloped particles [5]: about 50%; autophagic vesicles (AV) ([5]; RV(Wa)): absent; mitochondria ultrastructure ([5]; RV(Wa)): Many mitochondria present with normal ultrastructure; nucleoli ([5]; RV(Wa)): Nucleoli present; vesicles in the cytoplasm ([5]; RV(Wa)): not as many as in the RV(Wa) only
Oc1ccc(/C=C/c2cc(O)cc(O)c2)cc1 [t-Res, Trans-resveratrol, reference compound]	no statistical differences				change in virus titer (FFU) compared to RV-infected control (RV SA114F [3]; 20 μM, 24 hours post-infection, HT29.f8 cells): no change in the virus titer
